# Key:
# Format in all cases: cell-based, human
# HMGN1 [1] = assay: HMGN1 ELISA in culture medium of A549 cancer cells (Example 12, Table 66); conditions: Homo sapiens, A549, doxorubicin-induced senescent A549 cells, test compound 30 μM, ELISA, DMSO = 100; read-out: HMGN1 (amount of HMGN1 secreted in the cell culture)
# [2] = test system: foreskin cells in which senescence was induced by doxorubicin; assay: CellTiter-Glo cell viability of doxorubicin-induced senescent foreskin cells (Examples 1-2, 10, 11, 13; Tables 4, 63, 65); conditions: Homo sapiens, 72 h, doxorubicin-induced senescent foreskin cells, CellTiter-Glo, 0 μM = 100, read-out: Survival (%); for viability at 1.1 µM: 1.1 μM test compound; for viability at […]: […] test compound
# Experimental: After 3 days, cell viability was measured using CellTiter-Glo Luminescent Cell Viability Assay (Promega) or light microscopy.
# A549 = assay: CellTiter-Glo cell viability of senescent A549 cancer cells (Example 12, Table 67); conditions: Homo sapiens, A549, doxorubicin-induced senescent A549 cancer cells, CellTiter-Glo, read-out: Survival (%); for viability at 1.1 µM: 1.1 μM test compound; for viability at 10 µM: 10 μM test compound
# HMGN1 [3] = assay: HMGN1 ELISA in culture medium of foreskin cells (Examples 10, 11; Tables 62, 63, 64); conditions: Homo sapiens, 30 μM test compound, doxorubicin-treated foreskin cells, DMSO = 100; read-out: HMGN1
SMILES,activity at 30 µM (HMGN1 [1]),viability at 1.1 µM [2],viability at 1.1 µM (A549),activity at 30 µM (HMGN1 [3]),viability at […] [2],viability at 10 µM (A549)
COC(=O)C[C@]12CCC(C)(C)C[C@H]1[C@H]1C(=O)C=C3[C@@]4(C)C=C(C#N)C(=O)C(C)(C)[C@@H]4CC[C@@]3(C)[C@]1(C)CC2 [LX-2307],279%,15.4%,4.8%,271%,–,–
C[C@]12C=C(C#N)C(=O)C3(CC=CC3)C1=CC[C@@H]1[C@@H]2CC[C@]2(C)C(=O)CC[C@@H]12 [LX-2308],287%,49.6%,96.6%,329%,5.9%,23.5%
CC1(C)CC[C@]2(C(=O)NO)CC[C@]3(C)[C@H](C(=O)C=C4[C@@]5(C)C=C(C#N)C(=O)C(C)(C)[C@@H]5CC[C@]43C)[C@@H]2C1 [LX-2309],322%,69.7%,112%,307%,2.7%,14.9%
CONC(=O)[C@]12CCC(C)(C)C[C@H]1[C@H]1C(=O)C=C3[C@@]4(C)C=C(C#N)C(=O)C(C)(C)[C@@H]4CC[C@@]3(C)[C@]1(C)CC2 [LX-2310],319%,53.7%,100%,315%,6.9%,3.5%
C=C(C)[C@@H]1CC[C@]2(C(=O)NCC)CC[C@]3(C)[C@H](CCC4[C@@]5(C)C=C(C#N)C(=O)C(C)(C)[C@@H]5CC[C@]43C)[C@@H]12 (some centres unmarked) [LX-2311],276%,39.5%,97.5%,271%,4.1%,8.9%
C[C@@H]1C(=O)C(C#N)=C[C@]2(C)c3nn(C)c(-c4ccccc4)c3CC[C@@H]12 [LX-2312],339%,48.6%,96.3%,293%,5.2%,7.8%
COc1nc(-c2cccnc2)nc2c1CC[C@H]1[C@H](C)C(=O)C(C#N)=C[C@]21C [LX-2315],247%,75.2%,98.2%,235%,2.9%,39.2%
COC(=O)[C@]12CCC(C)(C)C[C@H]1[C@H]1C(=O)C=C3[C@@]4(C)C=C(C#N)C(=O)[C@@H](C)[C@@H]4CC[C@@]3(C)[C@]1(C)CC2 [LX-2316],263%,36.6%,106%,274%,0.9%,25.4%
C[C@@H]1C(=O)C(C#N)=C[C@]2(C)C3=CC(=O)[C@@H]4[C@@H]5CC(C)(C)CC[C@]5(CO)CC[C@@]4(C)[C@]3(C)CC[C@@H]12 [LX-2317],282%,48.2%,93.5%,317%,7.8%,29.7%
CC1(C)CC[C@]2(CO)CC[C@]3(C)[C@H](C(=O)C=C4[C@@]5(C)[C@H]6O[C@@]6(C#N)C(=O)C(C)(C)[C@@H]5CC[C@]43C)[C@@H]2C1 [LX-2318],278%,78.3%,94.1%,264%,12.1%,31.1%
C[C@@H]1C(=O)[C@]2(C#N)O[C@@H]2[C@]2(C)C3=CC(=O)[C@@H]4[C@@H]5CC(C)(C)CC[C@]5(NC(=O)C(C)(F)F)CC[C@@]4(C)[C@]3(C)CC[C@@H]12 [LX-2319],310%,52.9%,96.5%,241%,21.9%,21.3%
Cc1noc([C@]23CCC(C)(C)C[C@H]2[C@H]2C(=O)C=C4[C@@]5(C)C=C(C#N)C(=O)C(C)(C)[C@@H]5CC[C@@]4(C)[C@]2(C)CC3)n1 [LX-2401],284%,46.4%,108%,303%,6.8%,15.9%
CCNC(=O)CC[C@]12CCC(C)(C)C[C@H]1[C@H]1C(=O)C=C3[C@@]4(C)C=C(C#N)C(=O)C(C)(C)[C@@H]4CC[C@@]3(C)[C@]1(C)CC2 [LX-2402],286%,45.2%,99.5%,287%,5.1%,5.4%
CNC(=O)CC[C@]12CCC(C)(C)C[C@H]1[C@H]1C(=O)C=C3[C@@]4(C)C=C(C#N)C(=O)C(C)(C)[C@@H]4CC[C@@]3(C)[C@]1(C)CC2 [LX-2403],267%,38.1%,100%,319%,15.2%,3.2%
"C[C@@H]1C(=O)C(C#N)=C[C@]2(c3ccccc3)c3c(c(-c4cccnc4)nn3C)CC[C@@H]12 [LX-2407, (5aS,6S,9aR)-1,6-dimethyl-7-oxo-9a-phenyl-3-(pyridin-3-yl)-4,5,5a,6,7,9a-hexahydro-1H-benzo[g]indazole-8-carbonitrile]",316%,15.4%,89.6%,308%,5.9%,41.8%
C[C@@H]1C(=O)C(C#N)=C[C@]2(C)c3nc(CCO)n(-c4ccccc4)c3CC[C@@H]12 [LX-2409],281%,37.1%,88.5%,239%,12.8%,26.4%
CC(O)[C@]1(C)C(=O)C(C#N)=C[C@]2(C)C3=CC(=O)[C@]45OC(=O)[C@@]6(CCC(C)(C)C[C@H]64)CC[C@@]5(C)[C@]3(C)CC[C@@H]12 (some centres unmarked) [LX-2501],333%,11.1%,14.4%,309%,–,–
CCC[C@H]1C(=O)C(C#N)=C[C@@]2(C)c3nc(-c4ccnc5ccccc45)nc(-c4ccccc4F)c3CC[C@H]12 [LX-2502],297%,49.6%,97.2%,258%,13.4%,5.9%
CCC[C@H]1C(=O)C(C#N)C[C@@]2(C)c3nc(-c4cccc5ncccc45)nc(-c4ccccc4F)c3CC[C@H]12 (some centres unmarked) [LX-2503],285%,82.4%,105%,297%,25.8%,31.2%
C[C@H]1C(=O)C(C#N)=C[C@@]2(C)c3c(c(-c4ccccc4)nn3-c3ccc(-c4cccc(CO)c4)cc3)CC[C@H]12 [LX-2505],308%,78.6%,100%,248%,36.9%,18.6%
Cc1cc(-c2ccc(-n3nc(-c4ccccc4F)c4c3[C@]3(C)C=C(C#N)C(=O)[C@H](C)[C@H]3CC4)cc2)cnn1 [LX-2506],267%,91%,98.3%,279%,11.8%,26.4%
C[C@@H]1C(=O)C(C#N)=C[C@]2(C)C3=CC(=O)[C@@H]4[C@@H]5CC(C)(C)CC[C@]5(c5nnc(CF)o5)CC[C@@]4(C)[C@]3(C)CC[C@@H]12 [LX-2507],248%,46.6%,97.5%,267%,38.6%,35.7%
CC1(C)CC[C@]2(c3nc(CO)no3)CC[C@]3(C)[C@H](C(=O)C=C4[C@@]5(C)C=C(C#N)C(=O)C(C)(C)[C@@H]5CC[C@]43C)[C@@H]2C1 [LX-2508],283%,75.6%,93.5%,313%,28.2%,43.9%
C=CC(=O)NC[C@]12CCC(C)(C)C[C@H]1[C@H]1C(=O)C=C3[C@@]4(C)C=C(C#N)C(=O)C(C)(C)[C@@H]4CC[C@@]3(C)[C@]1(C)CC2 [LX-2509],305%,81.1%,106%,301%,13.5%,21.8%
CCC(=O)NC[C@]12CCC(C)(C)C[C@H]1[C@H]1C(=O)C=C3[C@@]4(C)C=C(C#N)C(=O)C(C)(C)[C@@H]4CC[C@@]3(C)[C@]1(C)CC2 [LX-2510],317%,62.9%,95.7%,288%,11.8%,2.9%
C[C@@H]1[C@H]2[C@H]3C(=O)C=C4[C@@]5(C)C=C(C#N)C(=O)C(C)(C)[C@@H]5CC[C@@]4(C)[C@]3(C)CC[C@@]2(c2nc(CCO)no2)CC[C@H]1C [LX-2511],296%,43.5%,97.2%,306%,8.4%,2.1%
C[C@@H]1[C@H]2[C@H]3C(=O)C=C4[C@@]5(C)C=C(C#N)C(=O)C(C)(C)[C@@H]5CC[C@@]4(C)[C@]3(C)CC[C@@]2(CO)CC[C@H]1C [LX-2512],274%,38.2%,88.5%,276%,3.2%,11.7%

# Source: patent US20250108036A1, “COMPOSITIONS FOR REMOVING SENESCENT CELLS AND USES THEREOF” (LIFECEUTIX CO., LTD., priority 2021, published 2025)
